Data set [1] has as its system alternative splicing of NCR3 gene (NKp30 SHORT, INTER, LONG isoforms) in NK92 cells. Description: Modulation of alternative splicing of NCR3 gene in NK92 cells (RT-PCR of NKp30 isoform proportions). To be noted: 2 μM with IL-2 (50 UI/ml), 36 h at 37° C., FIG. 14B. Format: cell-based, human. On the procedure:
(§1) FIG. 14. Modulation of alternative splicing of NCR3 gene with histone deacetylase inhibitors and DNA methyltransferase inhibitors (part A of experimental section)
(§2) NKp30 isoform proportions are shown as the ratio of the sum of WT—(variable Ig-like) and DEL—(constant Ig-like) extracellular domain relative quantities of each isoform (SHORT-, INTER- and LONG-tail isoforms) and the total quantity of the six isoforms.
(B) NK92 cells were seeded (5.10^5 NK/well) in 96 wells plates and incubated with 5-azacitidine (2 μM) (5AZA) and IL-2 (50 Ul/ml) for 36 h at 37° C.
(§3) Total cellular RNA was isolated from PBMC and NK cell lines with the RNeasy kit (Qiagen). First strand cDNA was synthesized from 5 μg of total RNA using SuperScript™ II Reverse Transcriptase and random primers (Promega) according to Invitrogen's instructions.
(§4) Modulation of NCR3 Alternative Splicing by HDAC and Demethylating Agents.
NK92 cells were seeded (5.10^5 NK/well) in 96 wells plates and incubated with 5-azacitidine (2 μM) and IL-2 (50 Ul/ml) for 36 h at 37° C.
(§5) Several approaches modulating alternative splicing may be used to operate a switch from NKp30 INTER^Low/SHORT^High/LONG^High (identified as profile B following the first results obtained in the present study (part A.)) towards NKp30 INTER^High/SHORT^Low/LONG^Low (identified as profile A following the first results obtained in the present study (part A.)). […]

For data set [2], the system named is NKp30 transcriptional profile (PBMC of GIST patients). Description: NKp30 transcriptional profile stability in GIST patients during the course of imatinib mesylate treatment. It is filed as in vivo, human. The following applies: GIST therapy, spanning several years in some cases, four patients, FIG. 4.
Description: FIG. 4. Representation of NKp30 transcriptional profile intra-individual stability in four GIST patients during the course of treatment
NKP30 transcriptional profile. NKp30 isoform proportions are shown as the ratio of the relative quantities of each isoform and the total quantity of the six isoforms. For each patient, the numbers in brackets represent the time post-treatment in months.
as §3
For the “GIST patients and Healthy Volunteers” cohort, real time quantitative PCR amplifications were conducted using FastStart DNA Master SYBRGreen I Mix according to the manufacturer's instructions, with 0.3 μM primers, 2 mM MgCl2 and cDNAs, in a 20 μl final reaction volume. Thermocycling was performed using a LightCycler (Roche Molecular System) initiated by 10 min incubation at 95° C., followed by 38 cycles (95° C., 1 s; 65° C., 10 s; 72° C., 20 s). NKp30 mRNA expression level was normalized by dividing its relative mRNA amount with the corresponding GAPDH mRNA amount.

Data set [3] deals with wild-type NCR3 gene splicing (NKp30 isoforms). Description: Modulation of wild-type NCR3 gene splicing by antisense oligonucleotides. The following applies: SEQ ID NO: 49-51 used in combination; no experiment described.
For data set [4], the system named is alternative splicing of NCR3 gene (NKp30 SHORT, INTER, LONG isoforms) in YTS cells. As to the kind of experiment: Modulation of alternative splicing of NCR3 gene in YTS cells (RT-PCR of NKp30 isoform proportions). Format: cell-based, human. To be noted: 100 nM, 45 h at 37° C., FIG. 14A. On the procedure:
as §1, §2
(A) YTS cells were seeded (5.10^5 NK/well) in 96 wells plates and incubated with trichostatine A (100 nM) (TSA) for 45 h at 37° C.
as §3, §4
YTS cells were seeded (5.10^5 NK/well) in 96 wells plates and incubated with trichostatine A (100 nM) for 45 h at 37° C.
as §5

Where a name gives a salt, the structure may show the parent alone.

Consider `Nc1ncn([C@@H]2O[C@H](CO)[C@@H](O)[C@H]2O)c(=O)n1` [5-azacitidine], for which the “Proportions of NKp30 INTER, SHORT and LONG isoforms” value in data set [1] is “significant over-representation of INTER isoforms associated with an under-representation of SHORT and LONG isoforms”.

Take `Cc1ccc(NC(=O)c2ccc(CN3CCN(C)CC3)cc2)cc1Nc1nccc(-c2cccnc2)n1` [imatinib mesylate]: the “Modulation of the pattern of NKp30 expression overtime” value in data set [2] is listed as “did not appear to modulate the pattern of NKp30 expression overtime”.

Consider “antisense oligonucleotides corresponding to SEQ ID NO: 49-51: three antisense oligonucleotides used in combination: target polyadenylation signal 1, polyadenylation site 1, and INTER blocking (antisense 1 GGGGCAGATTTATTGGGGTC; antisense 2 CTCATGAGGAGTTAGTGGT; antisense 3 GTGACAGTGGCCTGGTCAGA; listed as DNA, chemistry not given here)”, for which the “Representation of NKp30 INTER, SHORT and LONG isoforms compared to reference or mean values” in data set [3] is “significant (relative) under-representation of NKp30 INTER isoforms associated with a relative over-representation of NKp30 SHORT and LONG isoforms”.

Take `CC(/C=C/C(=O)NO)=C\[C@@H](C)C(=O)c1ccc(N(C)C)cc1` [trichostatin A]: the “Proportions of NKp30 INTER, SHORT and LONG isoforms” value in data set [4] was “significant over-representation of INTER isoforms associated with an under-representation of SHORT and LONG isoforms”.

The record behind these values is patent US9593376B2, “Natural killer p30 (NKp30) dysfunction and the biological applications thereof” (INSTITUT GUSTAVE ROUSSY, priority 2008, dated 2017).
